Measurements taken from patent publication US20240374573A1, “IMIDAZOLE CONTAINING COMPOUNDS, DERIVATIVES THEREFORE, AND USES THEREOF” (AglaeaPharma Inc., priority 2023, published 2024).

Columns and labels:
[1] = target: P-glycoprotein (P-gp, MDR1) (Homo sapiens, UniProt P08183); experiment: in vitro; settings: dog, MDCK-MDR1, pH 7.4
Description: MDR1-MDCK II cells (obtained from Piet Borst at the Netherlands Cancer Institute) were seeded onto Polycarbonate membranes (PC) in 96-well insert systems at 3.33×10^5 cells/mL until to 4-7 days for confluent cell monolayer formation.
Selected α2AR agonist from table 3s were diluted with the transport buffer (HBSS with 10.0 mM Hepes, pH7.4) from DMSO stock solution to a concentration of 2 μM (DMSO<1%) and applied to the apical or basolateral side of the cell monolayer. […] Permeation of the test compounds from A to B direction and/or B to A direction was determined in duplicate. Digoxin was tested at 10.0 μM from A to B direction and B to A direction in duplicate. The plate was incubated for 2.5 hours in CO2 incubator at 37.0±1.0° C., with 5.0% CO2 at saturated humidity without shaking. In addition, the efflux ratio of each compound was also determined. Test and reference compounds were quantified by LC/MS/MS analysis based on the peak area ratio of analyte/IS.
After transport assay, lucifer yellow rejection assay was applied to determine the cell monolayer integrity. Buffers were removed from both apical and basolateral chambers, followed by the addition of 75 μL of 100 μM lucifer yellow in transport buffer and 250 μL transport buffer in apical and basolateral chambers, respectively. The plate was incubated for 30 minutes at 37.0° C. with 5.0% CO2 and 95.0% relative humidity without shaking. After 30 minutes incubation, 20 μL of lucifer yellow samples were taken from the apical sides, followed by the addition of 60 μL of transport Buffer. And then 80 μL of lucifer yellow samples were taken from the basolateral sides. The relative fluorescence unit (RFU) of lucifer yellow was measured at 425/528 nm (excitation/emission) with an Envision plate reader.
The apparent permeability coefficient Papp (cm/s) was calculated using the equation: […]
wherein dCr/dt is the cumulative concentration of compound in the receiver chamber as a function of time (μM/s); Vr is the solution volume in the receiver chamber (0.075 mL on the apical side, 0.25 mL on the basolateral side); A is the surface area for the transport, i.e. 0.143 cm2 for the area of the monolayer; and C0 is the initial concentration in the donor chamber (μM).
The efflux ratio was calculated using the equation: […]

α2AAR = target: T1, α2AAR (Homo sapiens, UniProt P08913); experiment: α2AAR binding assay ([3H]-RX 821002 radioligand); settings: [3H]-RX 821002 0.5 nM, HEK293 membranes; read-out: α2A affinity (Ki)
T1 construct: host or cells: HEK293 (membranes)
T1 sequence (P08913 1-465): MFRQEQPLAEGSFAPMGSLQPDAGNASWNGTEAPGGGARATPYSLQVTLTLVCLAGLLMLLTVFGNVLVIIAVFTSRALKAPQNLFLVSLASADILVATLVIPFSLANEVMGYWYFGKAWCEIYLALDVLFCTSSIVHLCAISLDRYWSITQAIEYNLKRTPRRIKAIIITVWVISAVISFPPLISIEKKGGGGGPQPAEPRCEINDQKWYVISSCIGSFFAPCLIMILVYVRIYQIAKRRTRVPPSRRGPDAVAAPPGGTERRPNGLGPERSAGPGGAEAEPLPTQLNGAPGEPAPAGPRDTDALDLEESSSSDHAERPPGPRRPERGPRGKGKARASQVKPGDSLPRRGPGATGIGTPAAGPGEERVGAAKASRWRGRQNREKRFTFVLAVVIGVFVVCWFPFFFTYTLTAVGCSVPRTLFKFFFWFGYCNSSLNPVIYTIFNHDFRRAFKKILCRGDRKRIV

[2] = target: T2, α2AAR (α2A-adrenergic receptor) (Homo sapiens, UniProt P08913); experiment: α2AAR FLIPR assay (agonist activity); type: cell-based; settings: FLIPR, α2AAR cell line hosted in HEK293 cells; read-out: α2A agonist activity (EC50)
T2 construct: expressed in transfected cells; host or cells: HEK293
T2 sequence (P08913 1-465): T1 sequence (P08913 1-465)
Method in brief: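 HEK293 cells expressing α2AAR loaded with Fluo-4 Direct plus probenecid for 50 min at 37° C and 10 min at room temperature, then treated with serially diluted compounds.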

Sequence of P-glycoprotein (P-gp, MDR1) (P08183 whole entry): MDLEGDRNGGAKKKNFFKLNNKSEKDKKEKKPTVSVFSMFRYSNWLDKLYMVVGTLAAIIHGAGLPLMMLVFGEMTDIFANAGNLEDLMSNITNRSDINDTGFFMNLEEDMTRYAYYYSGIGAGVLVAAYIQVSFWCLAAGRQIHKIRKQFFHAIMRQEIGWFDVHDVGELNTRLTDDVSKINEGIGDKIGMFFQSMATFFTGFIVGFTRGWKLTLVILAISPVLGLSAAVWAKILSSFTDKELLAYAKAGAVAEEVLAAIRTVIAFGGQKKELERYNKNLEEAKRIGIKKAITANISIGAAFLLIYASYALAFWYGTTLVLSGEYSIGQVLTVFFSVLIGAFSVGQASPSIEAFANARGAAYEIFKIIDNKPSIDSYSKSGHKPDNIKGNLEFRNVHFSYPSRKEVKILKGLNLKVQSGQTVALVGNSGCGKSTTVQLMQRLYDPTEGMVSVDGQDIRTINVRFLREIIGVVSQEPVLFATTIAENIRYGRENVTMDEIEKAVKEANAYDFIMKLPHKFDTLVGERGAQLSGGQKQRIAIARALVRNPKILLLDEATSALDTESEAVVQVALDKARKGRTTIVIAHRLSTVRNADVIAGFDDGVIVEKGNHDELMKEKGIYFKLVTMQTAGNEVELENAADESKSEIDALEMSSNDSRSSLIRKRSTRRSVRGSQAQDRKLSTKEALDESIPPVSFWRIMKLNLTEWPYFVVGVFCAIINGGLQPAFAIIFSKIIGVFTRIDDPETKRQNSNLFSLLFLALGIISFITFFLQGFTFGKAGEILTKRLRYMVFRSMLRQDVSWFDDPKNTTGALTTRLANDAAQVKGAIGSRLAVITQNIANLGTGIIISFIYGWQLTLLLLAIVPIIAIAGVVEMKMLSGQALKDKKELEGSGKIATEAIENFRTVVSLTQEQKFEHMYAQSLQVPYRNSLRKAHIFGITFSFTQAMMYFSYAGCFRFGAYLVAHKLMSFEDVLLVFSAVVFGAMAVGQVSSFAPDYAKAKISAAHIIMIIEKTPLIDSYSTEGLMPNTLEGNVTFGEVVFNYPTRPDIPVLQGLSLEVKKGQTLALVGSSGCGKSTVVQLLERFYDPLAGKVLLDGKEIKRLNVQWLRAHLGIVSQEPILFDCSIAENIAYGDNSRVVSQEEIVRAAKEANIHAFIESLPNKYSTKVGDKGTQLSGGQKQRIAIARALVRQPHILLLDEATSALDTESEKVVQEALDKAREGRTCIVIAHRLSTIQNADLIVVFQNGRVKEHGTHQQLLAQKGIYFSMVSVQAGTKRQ

| SMILES | efflux ratio at 2.5 h, 2 μM [1] | Ki (α2AAR) [nM] | EC50 [2] [nM] |
| --- | --- | --- | --- |
| Cc1cccc(C(c2cccc(NC(=O)OC3CCOC3)c2)c2c[nH]cn2)c1C (stereo not drawn) [compound 64] | 24.3 | 10 to 50 | 10 to 50 |
| CCS(=O)(=O)Nc1cccc(C(c2c[nH]cn2)c2cccc(C)c2C)c1 (stereo not drawn) [compound 67] | 29 | 10 to 50 | 10 to 50 |
| CONC(=O)Nc1cccc(C(c2c[nH]cn2)c2cccc(C)c2C)c1 (stereo not drawn) [compound 72] | 32.9 | 10 to 50 | 10 to 50 |
| Cc1cccc(C(c2cccc(NC(=O)CC3CCOC3)c2)c2c[nH]cn2)c1C (stereo not drawn) [compound 73] | 96.1 | 10 to 50 | 10 to 50 |
| Cc1cccc(C(c2cccc(NS(=O)(=O)CCC#N)c2)c2c[nH]cn2)c1C (stereo not drawn) [compound 74] | 93.5 | 10 to 50 | 50 to 250 |
| Cc1cccc(C(c2cccc(NC(=O)CC3CCOCC3)c2)c2c[nH]cn2)c1C (stereo not drawn) [compound 80] | 112 | < 10 | 10 to 50 |
| Cc1cccc(C(c2cccc(NC(=O)CN3CCOCC3)c2)c2c[nH]cn2)c1C (stereo not drawn) [compound 81] | 62.5 | < 10 | 10 to 50 |
| Cc1cccc(C(c2cccc(C(=O)NOCC3CCOC3)c2)c2c[nH]cn2)c1C (stereo not drawn) [compound 95] | 102 | < 10 | 10 to 50 |
| Cc1cccc(C(c2cccc(C(=O)NCC3CCC(O)CC3)c2)c2c[nH]cn2)c1C (stereo not drawn) [compound 99] | 141 | 10 to 50 | 10 to 50 |
| Cc1cccc(C(c2cccc(NC(=O)CCC3CCOCC3)c2)c2c[nH]cn2)c1C (stereo not drawn) [compound 101] | 104 | 10 to 50 | 10 to 50 |
| Cc1cccc(C(c2cccc(NC(=O)Cc3ccncc3)c2)c2c[nH]cn2)c1C (stereo not drawn) [compound 103] | 149 | 10 to 50 | 10 to 50 |
| Cc1cccc(C(c2cccc(S(=O)(=O)NCC3CCOCC3)c2)c2c[nH]cn2)c1C (stereo not drawn) [compound 105] | 65.8 | < 10 | 10 to 50 |
| Cc1cccc(C(Cc2cccc(NC(=O)CC3CCOCC3)c2)c2c[nH]cn2)c1C (stereo not drawn) [compound 108] | 72.2 | < 10 | 10 to 50 |
| Cc1cccc(C(c2cccc(NC(=O)NC3CC3)c2)c2c[nH]cn2)c1C (stereo not drawn) [compound 109] | 94.8 | 10 to 50 | 10 to 50 |
| Cc1cccc(C(c2cccc(NC(=O)NC3CCOCC3)c2)c2c[nH]cn2)c1C (stereo not drawn) [compound 111] | 173 | 10 to 50 | 10 to 50 |
| Cc1cccc(C(Cc2cccc(NS(=O)(=O)CC3CCOCC3)c2)c2c[nH]cn2)c1C (stereo not drawn) [compound 112] | 58.4 | < 10 | 10 to 50 |
| Cc1cccc(C(c2c[nH]cn2)c2cccc(C(=O)NCC3CCOCC3)c2O)c1C (stereo not drawn) [compound 138] | 7.85 | < 10 | 10 to 50 |

| SMILES | efflux ratio at 2.5 h, 2 μM [1] | Ki (α2AAR) [nM] | EC50 [2] [nM] |
| --- | --- | --- | --- |
| Cc1cccc(C(c2cccc(NC(=O)CC[N+](C)(C)C)c2)c2c[nH]cn2)c1C (stereo not drawn) [compound 141] | 2.61 | 10 to 50 | 50 to 250 |
| Cc1cccc(C(Cc2ccc(NS(=O)(=O)C3CCOCC3)cc2)c2c[nH]cn2)c1C (stereo not drawn) [compound 158] | 23.7 | < 10 | 10 to 50 |
| Cc1cccc(C(Cc2ccc(C(N)=O)cc2)c2c[nH]cn2)c1C (stereo not drawn) [compound 163] | 9.08 | < 10 | 10 to 50 |
| Cc1cccc(C(Cc2ccc(NC(=O)CC3CCOCC3)cc2)c2c[nH]cn2)c1C (stereo not drawn) [compound 165] | 14.8 | < 10 | < 10 |
| Cc1cccc(C(Cc2ccc(C(=O)NC3CCOCC3)nc2)c2c[nH]cn2)c1C (stereo not drawn) [compound 186] | 3.38 | 10 to 50 | 10 to 50 |
| Cc1cccc(C(Cc2ccc(C(=O)NC3CCOCC3)c(F)c2)c2c[nH]cn2)c1C (stereo not drawn) [compound 187] | 2.6 | < 10 | 10 to 50 |
| CC(=O)Nc1ccc(CC(c2c[nH]cn2)c2cccc(C)c2C)cc1 (stereo not drawn) [compound 190] | 4.91 | < 10 | 10 to 50 |
| Cc1cccc(C(Cc2ccc(NC(=O)C3COC3)cc2)c2c[nH]cn2)c1C (stereo not drawn) [compound 200] | 27.7 | < 10 | 10 to 50 |
| Cc1cccc(C(Cc2ccc(NC(=O)NC3CCOCC3)cc2)c2c[nH]cn2)c1C (stereo not drawn) [compound 205] | 61.8 | < 10 | 10 to 50 |
| Cc1cccc(C(Cc2ccc(S(N)(=O)=O)c(F)c2)c2c[nH]cn2)c1C (stereo not drawn) [compound 208] | 8.88 | < 10 | < 10 |
| COc1cc(CC(c2c[nH]cn2)c2cccc(C)c2C)ccc1C(=O)NC1CCOCC1 (stereo not drawn) [compound 213] | 4.92 | < 10 | < 10 |
| Cc1cccc(C(Cc2ccc(NC(=O)NC3COC3)cc2)c2c[nH]cn2)c1C (stereo not drawn) [compound 214] | 56.1 | < 10 | 10 to 50 |
| CNC(=O)c1ccc(CC(c2c[nH]cn2)c2cccc(C)c2C)cc1 (stereo not drawn) [compound 215] | 4.77 | < 10 | < 10 |
| Cc1cccc(C(Cc2ccc(C(=O)N(C)C)cc2)c2c[nH]cn2)c1C (stereo not drawn) [compound 216] | 3.21 | < 10 | < 10 |
| Cc1cccc(C(Cc2ccc(S(N)(=O)=O)cc2)c2c[nH]cn2)c1C (stereo not drawn) [compound 217] | 17.5 | < 10 | < 10 |
| Cc1cccc(C(Cc2ccc(C(=O)NO)cc2)c2c[nH]cn2)c1C (stereo not drawn) [compound 219] | 26.9 | < 10 | < 10 |
| CCc1cscc1C(c1cccc(NS(C)(=O)=O)c1)c1c[nH]cn1 (stereo not drawn) [compound 401] | 22 | < 10 | 10 to 50 |
